Results from patent US20120101110A1, “Diaza-spiro[5.5]undecanes” (priority 2010, published 2012).

Columns and labels:
human orexin 2 receptors = target: T1, human orexin 2 receptors (Homo sapiens, UniProt O43614); experiment: Calcium accumulation in cells (FLIPR), hOx2R; assay type: cell-based; conditions: cells expressing human orexin 2 receptor; inhibition of orexin A-induced calcium accumulation; Cheng and Prusoff correction
T1 sequence (O43614 1-444): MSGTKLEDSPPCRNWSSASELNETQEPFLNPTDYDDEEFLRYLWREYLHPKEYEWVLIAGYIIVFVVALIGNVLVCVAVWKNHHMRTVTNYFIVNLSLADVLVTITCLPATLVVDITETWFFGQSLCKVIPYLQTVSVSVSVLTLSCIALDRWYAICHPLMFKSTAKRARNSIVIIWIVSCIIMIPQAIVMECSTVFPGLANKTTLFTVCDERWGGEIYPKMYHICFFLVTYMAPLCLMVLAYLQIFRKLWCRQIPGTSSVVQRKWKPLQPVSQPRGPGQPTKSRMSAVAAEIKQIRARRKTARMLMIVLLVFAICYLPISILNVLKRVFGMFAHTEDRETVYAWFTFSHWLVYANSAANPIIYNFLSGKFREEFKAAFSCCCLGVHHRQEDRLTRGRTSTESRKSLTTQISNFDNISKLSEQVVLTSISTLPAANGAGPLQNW

human orexin 1 receptors = target: T2, human orexin 1 receptors (Homo sapiens, UniProt O43613); experiment: Calcium accumulation in cells (FLIPR), hOx1R; conditions: for inhibition at 10 µM: read-out: FLIPR hOx1R % inhibition value
T2 sequence (O43613 1-425): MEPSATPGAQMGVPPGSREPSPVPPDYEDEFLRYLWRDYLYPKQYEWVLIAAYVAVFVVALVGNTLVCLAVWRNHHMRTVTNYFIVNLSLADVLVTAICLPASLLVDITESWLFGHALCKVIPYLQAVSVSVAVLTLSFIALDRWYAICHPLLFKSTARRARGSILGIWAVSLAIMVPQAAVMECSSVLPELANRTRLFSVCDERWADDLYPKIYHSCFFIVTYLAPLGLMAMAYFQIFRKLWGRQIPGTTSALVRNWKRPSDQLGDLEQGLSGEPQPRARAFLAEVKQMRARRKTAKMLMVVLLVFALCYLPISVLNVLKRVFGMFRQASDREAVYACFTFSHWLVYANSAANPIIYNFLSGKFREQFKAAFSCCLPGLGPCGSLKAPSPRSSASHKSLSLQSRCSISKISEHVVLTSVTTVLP

N#Cc1ccc(N2CCC3(CCCC(=O)N3Cc3cccc4[nH]ccc34)CC2)nc1 [Example 14, 6-(1-((1H-indol-4-yl)methyl)-2-oxo-1,9-diazaspiro[5.5]undecan-9-yl)nicotinonitrile]
Ki (human orexin 2 receptors): 200 nM
inhibition at 10 µM (human orexin 1 receptors): 13%

COc1cncc(N2CCC3(CCCN(Cc4c[nH]c5ncccc45)C3=O)CC2)n1 [Example 8, 2-((1H-pyrrolo[2,3-b]pyridin-3-yl)methyl)-9-(6-methoxypyrazin-2-yl)-2,9-diazaspiro[5.5]undecan-1-one]
Ki (human orexin 2 receptors): 276 nM
inhibition at 10 µM (human orexin 1 receptors): 31%

O=C1N(Cc2c[nH]c3ccccc23)CCCC12CCN(c1nccc(C(F)(F)F)n1)CC2 [Example 49, 2-((1H-indol-3-yl)methyl)-9-(4-(trifluoromethyl)pyrimidin-2-yl)-2,9-diazaspiro[5.5]undecan-1-one]
Ki (human orexin 2 receptors): 190 nM
Ki (human orexin 1 receptors): 2180 nM

Cc1nnc(N2CCC3(CCCN(Cc4c[nH]c5ccccc45)C3=O)CC2)s1 [Example 85, 2-((1H-indol-3-yl)methyl)-9-(5-methyl-1,3,4-thiadiazol-2-yl)-2,9-diazaspiro[5.5]undecan-1-one]
Ki (human orexin 2 receptors): 664 nM
inhibition at 10 µM (human orexin 1 receptors): 42%

COCc1cccc(CN2CCCC3(CCN(c4nc(C)cc(C)n4)CC3)C2=O)c1 [Example 125, 9-(4,6-dimethylpyrimidin-2-yl)-2-(3-(methoxymethyl)benzyl)-2,9-diazaspiro[5.5]undecan-1-one]
Ki (human orexin 2 receptors): 177 nM
inhibition at 10 µM (human orexin 1 receptors): 22%

N#Cc1cncc(N2CCC3(CCCN(Cc4c[nH]c5ccccc45)C3=O)CC2)n1 [Example 77, 6-(2-((1H-indol-3-yl)methyl)-1-oxo-2,9-diazaspiro[5.5]undecan-9-yl)pyrazine-2-carbonitrile]
Ki (human orexin 2 receptors): 173 nM
Ki (human orexin 1 receptors): 3630 nM

N#Cc1ccnc(N2CCC3(CCCN(Cc4ccccc4-n4nccn4)C3=O)CC2)c1 [Example 27, 2-(2-(2-(2H-1,2,3-triazol-2-yl)benzyl)-1-oxo-2,9-diazaspiro[5.5]undecan-9-yl)isonicotinonitrile]
Ki (human orexin 2 receptors): 645 nM
inhibition at 10 µM (human orexin 1 receptors): < 10%

COCc1cccc(N2CCC3(CCCN(Cc4c[nH]c5ccccc45)C3=O)CC2)n1 [Example 73, 2-((1H-indol-3-yl)methyl)-9-(6-(methoxymethyl)pyridin-2-yl)-2,9-diazaspiro[5.5]undecan-1-one]
Ki (human orexin 2 receptors): 639 nM
inhibition at 10 µM (human orexin 1 receptors): 30%

Cc1cncc(N2CCC3(CCCN(Cc4c[nH]c5ncccc45)C3=O)CC2)n1 [Example 19, 2-((1H-pyrrolo[2,3-b]pyridin-3-yl)methyl)-9-(6-methylpyrazin-2-yl)-2,9-diazaspiro[5.5]undecan-1-one]
Ki (human orexin 2 receptors): 147 nM
inhibition at 10 µM (human orexin 1 receptors): 31%

Cc1ccnc(N2CCC3(CCCC(=O)N3Cc3ccccc3-n3nccn3)CC2)n1 [Example 16, 1-(2-(2H-1,2,3-triazol-2-yl)benzyl)-9-(4-methylpyrimidin-2-yl)-1,9-diazaspiro[5.5]undecan-2-one]
Ki (human orexin 2 receptors): 270 nM
inhibition at 10 µM (human orexin 1 receptors): 31%

Cc1nccc(N2CCC3(CCCN(Cc4c[nH]c5ccccc45)C3=O)CC2)n1 [Example 70, 2-((1H-indol-3-yl)methyl)-9-(2-methylpyrimidin-4-yl)-2,9-diazaspiro[5.5]undecan-1-one]
Ki (human orexin 2 receptors): 240 nM
Ki (human orexin 1 receptors): 1810 nM

COCc1ccccc1CN1CCCC2(CCN(c3nc(C)cc(C)n3)CC2)C1=O [Example 126, 9-(4,6-dimethylpyrimidin-2-yl)-2-(2-(methoxymethyl)benzyl)-2,9-diazaspiro[5.5]undecan-1-one]
Ki (human orexin 2 receptors): 140 nM
inhibition at 10 µM (human orexin 1 receptors): 31%

Cc1cc(N2CCC3(CCCN(Cc4c[nH]c5ccccc45)C3=O)CC2)nc(C)n1 [Example 71, 2-((1H-indol-3-yl)methyl)-9-(2,6-dimethylpyrimidin-4-yl)-2,9-diazaspiro[5.5]undecan-1-one]
Ki (human orexin 2 receptors): 166 nM
inhibition at 10 µM (human orexin 1 receptors): 31%

COc1cncc(N2CCC3(CCCC(=O)N3Cc3c[nH]c4ccccc34)CC2)n1 [Example 55, 1-((1H-indol-3-yl)methyl)-9-(6-methoxypyrazin-2-yl)-1,9-diazaspiro[5.5]undecan-2-one]
Ki (human orexin 2 receptors): 727 nM
inhibition at 10 µM (human orexin 1 receptors): 40%

CC(C)c1ccnc(N2CCC3(CCCN(Cc4c[nH]c5ccccc45)C3=O)CC2)n1 [Example 50, 2-((1H-indol-3-yl)methyl)-9-(4-isopropylpyrimidin-2-yl)-2,9-diazaspiro[5.5]undecan-1-one]
Ki (human orexin 2 receptors): 223 nM
Ki (human orexin 1 receptors): 1860 nM

N#Cc1cc(C#N)nc(N2CCC3(CCCN(Cc4c[nH]c5ccccc45)C3=O)CC2)n1 [Example 76, 2-(2-((1H-indol-3-yl)methyl)-1-oxo-2,9-diazaspiro[5.5]undecan-9-yl)pyrimidine-4,6-dicarbonitrile]
Ki (human orexin 2 receptors): 1130 nM
inhibition at 10 µM (human orexin 1 receptors): < 10%

Cc1ccc(N2CCC3(CCCN(Cc4c[nH]c5ccccc45)C3=O)CC2)nc1C [Example 64, 2-((1H-indol-3-yl)methyl)-9-(5,6-dimethylpyridin-2-yl)-2,9-diazaspiro[5.5]undecan-1-one]
Ki (human orexin 2 receptors): 150 nM
Ki (human orexin 1 receptors): 3370 nM

Cc1cc(N2CCC3(CCCN(Cc4c[nH]c5ccccc45)C3=O)CC2)cc(C)n1 [Example 63, 2-((1H-indol-3-yl)methyl)-9-(2,6-dimethylpyridin-4-yl)-2,9-diazaspiro[5.5]undecan-1-one]
Ki (human orexin 2 receptors): 1280 nM
inhibition at 10 µM (human orexin 1 receptors): 16%

Cc1ccnc(N2CCC3(CCCN(Cc4ccccc4-n4nccn4)C3=O)CC2)n1 [Example 24, 2-(2-(2H-1,2,3-triazol-2-yl)benzyl)-9-(4-methylpyrimidin-2-yl)-2,9-diazaspiro[5.5]undecan-1-one]
Ki (human orexin 2 receptors): 509 nM
inhibition at 10 µM (human orexin 1 receptors): < 10%

Cc1ccnc(N2CCC3(CCCN(Cc4cccc(-c5ncccn5)c4)C3=O)CC2)n1 [Example 30, 9-(4-methylpyrimidin-2-yl)-2-(3-(pyrmidin-2-yl)benzyl)-2,9-diazaspiro[5.5]undecan-1-one]
Ki (human orexin 2 receptors): 686 nM
inhibition at 10 µM (human orexin 1 receptors): 48%

Cn1cc(CN2CCCC3(CCN(c4cncc(Cl)n4)CC3)C2=O)c2ccccc21 [Example 53, 9-(6-chloropyrazin-2-yl)-2-((1-methyl-1H-indol-3-yl)methyl)-2,9-diazaspiro[5.5]undecan-1-one]
Ki (human orexin 2 receptors): 420 nM
Ki (human orexin 1 receptors): 2740 nM

CCOc1ccnc(N2CCC3(CCCN(Cc4c[nH]c5ccccc45)C3=O)CC2)n1 [Example 52, 2-((1H-indol-3-yl)methyl)-9-(4-ethoxypyrimidin-2-yl)-2,9-diazaspiro[5.5]undecan-1-one]
Ki (human orexin 2 receptors): 125 nM
Ki (human orexin 1 receptors): 1060 nM

Cc1ccnc(N2CCC3(CCCC(=O)N3Cc3ccccc3-c3nc(C)no3)CC2)n1 [Example 99, 1-(2-(3-methyl-1,2,4-oxadiazol-5-yl)benzyl)-9-(4-methylpyrimidin-2-yl)-1,9-diazaspiro[5.5]undecan-2-one]
Ki (human orexin 2 receptors): 614 nM
inhibition at 10 µM (human orexin 1 receptors): 12%

Cc1cccnc1N1CCC2(CCCN(Cc3c[nH]c4ccccc34)C2=O)CC1 [Example 66, 2-((1H-indol-3-yl)methyl)-9-(3-methylpyridin-2-yl)-2,9-diazaspiro[5.5]undecan-1-one]
Ki (human orexin 2 receptors): 991 nM
inhibition at 10 µM (human orexin 1 receptors): 36%

Cc1cccc(N2CCC3(CCCN(Cc4c[nH]c5ccccc45)C3=O)CC2)c1 [Example 57, 2-((1H-indol-3-yl)methyl)-9-m-tolyl-2,9-diazaspiro[5.5]undecan-1-one]
Ki (human orexin 2 receptors): 171 nM
Ki (human orexin 1 receptors): 3750 nM
